Reference: ChEMBL document CHEMBL1909046, “DrugMatrix in vitro pharmacology data”
Where a SMILES comes first, the peptide text is derived from it. Bridges are numbered along the chain shown (N, C = ends). [ ]: non-standard residue; d: D form. The star is where a group is joined. Threoninol(2S,3R) = C[C@@H](O)[C@H](CO)N*

What was measured:
[1] = DRUGMATRIX: Serotonin (5-Hydroxytryptamine) 5-HT3 radioligand binding (ligand: [3H] GR-65630); assay type: cell membranes, Membrane; conditions: hek293, Not Active = under 50% inhibition at 10 µM
[2] = molecular target: T1, Vasoactive intestinal polypeptide receptor 1 (Homo sapiens, UniProt P32241); assay type: cell membranes, Membrane; conditions: ht-29; note: in other assays of this panel Not Active means under 50% inhibition at 10 µM
T1 sequence (P32241 whole entry): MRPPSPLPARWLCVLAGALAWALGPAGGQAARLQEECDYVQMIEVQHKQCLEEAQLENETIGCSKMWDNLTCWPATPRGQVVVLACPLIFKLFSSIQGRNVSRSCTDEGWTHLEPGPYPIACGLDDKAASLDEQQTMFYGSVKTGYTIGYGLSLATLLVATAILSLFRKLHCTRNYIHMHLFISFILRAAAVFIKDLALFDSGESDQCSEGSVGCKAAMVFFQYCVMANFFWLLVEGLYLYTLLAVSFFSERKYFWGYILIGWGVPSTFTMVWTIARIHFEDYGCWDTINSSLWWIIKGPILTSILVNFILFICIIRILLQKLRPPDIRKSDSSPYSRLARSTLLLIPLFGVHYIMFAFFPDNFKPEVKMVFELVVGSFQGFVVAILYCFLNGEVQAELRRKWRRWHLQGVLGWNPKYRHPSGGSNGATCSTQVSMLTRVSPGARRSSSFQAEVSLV

[3] = molecular target: C-C chemokine receptor type 2 (Homo sapiens, UniProt P41597); assay type: cell membranes, CHO-K1, Membrane; conditions: cho-k1; note: in other assays of this panel Not Active means under 50% inhibition at 10 µM
Endothelin-1 receptor = molecular target: T2, Endothelin-1 receptor (Homo sapiens, UniProt P25101); assay type: cell membranes, Membrane; conditions: cho-k1; note: in other assays of this panel Not Active means under 50% inhibition at 10 µM
T2 sequence (P25101 whole entry): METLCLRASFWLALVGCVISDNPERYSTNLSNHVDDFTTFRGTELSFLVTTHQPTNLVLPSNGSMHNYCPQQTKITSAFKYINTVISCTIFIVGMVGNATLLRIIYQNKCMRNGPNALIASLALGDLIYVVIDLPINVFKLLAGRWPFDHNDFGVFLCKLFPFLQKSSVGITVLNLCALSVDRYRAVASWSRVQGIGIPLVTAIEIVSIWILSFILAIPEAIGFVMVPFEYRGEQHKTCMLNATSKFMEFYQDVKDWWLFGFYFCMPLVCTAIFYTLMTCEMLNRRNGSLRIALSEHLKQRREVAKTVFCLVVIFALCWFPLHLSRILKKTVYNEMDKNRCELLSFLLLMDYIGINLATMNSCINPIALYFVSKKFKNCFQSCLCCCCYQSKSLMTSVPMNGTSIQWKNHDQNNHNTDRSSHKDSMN

[4] = molecular target: Tyrosine-protein kinase Fyn (Homo sapiens, UniProt P06241); assay: biochemical; assay type: cell-based, Insect cells;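 note: enzymatic inhibition of Fyn kinase activity measured with Poly(Glu:Tyr) as the phosphorylation substrate; in other assays of this panel Not Active means under 50% inhibition at 10 µM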
[5] = molecular target: Receptor tyrosine-protein kinase erbB-2 (Homo sapiens, UniProt P04626); assay: biochemical; assay type: cell-based, Insect cells; conditions: insect cells
Chain of Receptor tyrosine-protein kinase erbB-2 (P04626 whole entry): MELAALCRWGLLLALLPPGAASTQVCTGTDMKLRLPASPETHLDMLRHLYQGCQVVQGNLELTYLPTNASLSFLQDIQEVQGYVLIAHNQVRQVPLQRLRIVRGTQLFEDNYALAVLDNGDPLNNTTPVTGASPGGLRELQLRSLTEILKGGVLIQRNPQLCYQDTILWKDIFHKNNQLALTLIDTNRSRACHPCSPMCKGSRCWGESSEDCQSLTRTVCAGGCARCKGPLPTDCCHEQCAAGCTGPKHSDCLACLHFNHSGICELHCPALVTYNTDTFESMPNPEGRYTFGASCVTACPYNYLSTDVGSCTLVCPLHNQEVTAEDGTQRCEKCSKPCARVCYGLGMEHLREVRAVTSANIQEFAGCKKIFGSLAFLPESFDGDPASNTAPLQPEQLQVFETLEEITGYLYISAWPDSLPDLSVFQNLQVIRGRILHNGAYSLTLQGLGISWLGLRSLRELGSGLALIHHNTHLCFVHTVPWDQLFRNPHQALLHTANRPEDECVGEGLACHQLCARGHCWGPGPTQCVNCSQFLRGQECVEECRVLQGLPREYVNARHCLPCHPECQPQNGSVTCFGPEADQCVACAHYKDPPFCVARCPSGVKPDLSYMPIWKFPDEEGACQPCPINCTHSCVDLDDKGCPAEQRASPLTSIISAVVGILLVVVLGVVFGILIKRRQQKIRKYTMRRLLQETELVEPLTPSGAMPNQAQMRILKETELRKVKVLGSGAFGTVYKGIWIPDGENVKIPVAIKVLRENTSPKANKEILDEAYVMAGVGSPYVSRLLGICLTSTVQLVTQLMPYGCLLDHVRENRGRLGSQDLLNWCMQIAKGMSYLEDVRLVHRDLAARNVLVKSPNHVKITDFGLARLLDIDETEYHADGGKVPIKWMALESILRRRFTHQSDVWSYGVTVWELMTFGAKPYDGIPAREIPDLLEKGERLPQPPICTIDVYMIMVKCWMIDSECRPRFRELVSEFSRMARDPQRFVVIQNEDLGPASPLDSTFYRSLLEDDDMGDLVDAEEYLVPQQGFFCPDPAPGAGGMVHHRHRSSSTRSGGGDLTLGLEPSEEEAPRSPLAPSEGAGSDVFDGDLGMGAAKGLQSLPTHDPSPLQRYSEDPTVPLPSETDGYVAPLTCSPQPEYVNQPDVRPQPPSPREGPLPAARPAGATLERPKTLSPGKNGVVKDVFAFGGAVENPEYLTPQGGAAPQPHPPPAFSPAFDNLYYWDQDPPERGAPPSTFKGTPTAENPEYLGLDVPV

Chain of Tyrosine-protein kinase Fyn (P06241 whole entry): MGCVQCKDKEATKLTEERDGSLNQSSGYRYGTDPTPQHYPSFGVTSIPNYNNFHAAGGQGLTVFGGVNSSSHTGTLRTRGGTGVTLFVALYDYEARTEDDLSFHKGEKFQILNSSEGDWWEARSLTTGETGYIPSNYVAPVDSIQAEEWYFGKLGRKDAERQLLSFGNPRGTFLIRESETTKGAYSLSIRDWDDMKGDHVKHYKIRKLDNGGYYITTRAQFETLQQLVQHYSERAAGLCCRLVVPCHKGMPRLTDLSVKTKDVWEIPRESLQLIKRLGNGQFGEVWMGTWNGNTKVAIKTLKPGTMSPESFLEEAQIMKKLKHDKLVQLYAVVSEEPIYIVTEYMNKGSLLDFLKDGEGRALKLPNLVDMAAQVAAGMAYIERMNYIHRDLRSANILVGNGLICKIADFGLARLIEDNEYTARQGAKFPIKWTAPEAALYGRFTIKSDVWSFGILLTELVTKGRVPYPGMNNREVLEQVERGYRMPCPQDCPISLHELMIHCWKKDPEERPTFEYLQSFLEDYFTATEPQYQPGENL
Chain of C-C chemokine receptor type 2 (P41597 whole entry): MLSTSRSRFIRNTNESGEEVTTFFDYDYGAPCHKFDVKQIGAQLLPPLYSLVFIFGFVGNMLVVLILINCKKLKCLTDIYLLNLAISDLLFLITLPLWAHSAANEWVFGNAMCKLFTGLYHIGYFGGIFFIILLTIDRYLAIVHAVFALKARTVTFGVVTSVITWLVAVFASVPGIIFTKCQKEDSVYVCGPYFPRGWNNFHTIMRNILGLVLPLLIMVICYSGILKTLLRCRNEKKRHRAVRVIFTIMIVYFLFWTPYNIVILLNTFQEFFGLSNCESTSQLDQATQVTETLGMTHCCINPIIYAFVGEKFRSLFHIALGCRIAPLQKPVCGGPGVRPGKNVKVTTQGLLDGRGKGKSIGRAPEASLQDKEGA

SMILES | IC50 [1] | Ki [1] | IC50 [2] | IC50 [3] | IC50 (Endothelin-1 receptor) | IC50 ([4]; insect cells) | IC50 [5] | IC50 ([1]; read-out: IC50) | Ki ([1]; read-out: Ki) | Ki [2] | Ki [3] | Ki (Endothelin-1 receptor) | Ki ([4]; insect cells) | Ki [5] | IC50 ([4]; read-out: IC50)
Cc1ccccc1C(=O)N1CCC(Cc2ccccc2)CC1 | Not Active | Not Active | Not Active | Not Active | Not Active | Not Active | Not Active | – | – | – | – | – | – | – | –
C[C@@H](O)[C@H](CO)NC(=O)[C@@H]1CSSC[C@H](NC(=O)[C@H](N)Cc2ccccc2)C(=O)N[C@@H](Cc2ccccc2)C(=O)N[C@H](Cc2c[nH]c3ccccc23)C(=O)N[C@@H](CCCCN)C(=O)N[C@@H]([C@@H](C)O)C(=O)N1 (H-[dF]CF[dW]KTC-{Threoninol(2S,3R)}; disulfide 2-7) | Not Active | Not Active | Not Active | Not Active | Not Active | Not Active | Not Active | – | – | – | – | – | – | – | –
Cc1nccn1CC1CCc2c(c3ccccc3n2C)C1=O (stereo not given) [ONDANSETRON] | – | – | Not Active | Not Active | Not Active | Not Active | Not Active | 9.29 nM | 2.09 nM | – | – | – | – | – | –
C#C[C@]1(O)CC[C@H]2[C@@H]3CCc4cc(OC)ccc4[C@H]3CC[C@@]21C [MESTRANOL] | Not Active | Not Active | Not Active | Not Active | Not Active | Not Active | Not Active | – | – | – | – | – | – | – | –
COc1cc2c(c3oc(=O)c4c(c13)CCC4=O)[C@@H]1C=CO[C@@H]1O2 [AFLATOXIN] | Not Active | Not Active | Not Active | Not Active | Not Active | Not Active | Not Active | – | – | Not Active | Not Active | Not Active | Not Active | Not Active | –
CC1(C)O[C@@H]2C[C@H]3[C@@H]4C[C@H](F)C5=CC(=O)CC[C@]5(C)[C@H]4[C@@H](O)C[C@]3(C)[C@]2(C(=O)CO)O1 [FLURANDRENOLIDE] | Not Active | Not Active | Not Active | Not Active | Not Active | Not Active | Not Active | – | – | – | – | – | – | – | –
CC1(C)O[C@@H]2C[C@H]3[C@@H]4C[C@H](F)C5=CC(=O)C=C[C@]5(C)[C@@]4(F)[C@@H](O)C[C@]3(C)[C@]2(C(=O)CO)O1 [FLUOCINOLONE ACETONIDE] | Not Active | Not Active | Not Active | Not Active | Not Active | Not Active | Not Active | – | – | – | – | – | – | – | –
CC(C(=O)O)c1cccc(C(=O)c2ccccc2)c1 (stereo not given) [KETOPROFEN] | Not Active | Not Active | Not Active | Not Active | Not Active | Not Active | Not Active | – | – | – | – | – | – | – | –
NC(=O)NO [HYDROXYUREA] | Not Active | Not Active | Not Active | Not Active | Not Active | Not Active | Not Active | – | – | – | – | – | – | – | –
O=c1ccc2ccccc2o1 [COUMARIN] | Not Active | Not Active | Not Active | Not Active | Not Active | Not Active | Not Active | – | – | – | – | – | – | – | –
CN1C(=O)COc2c(C(=O)NC3CN4CCC3CC4)cc(Cl)cc21 (stereo not given) [AZASETRON] | – | – | Not Active | Not Active | Not Active | Not Active | Not Active | 13 nM | 2.89 nM | – | – | – | – | – | –
C[C@H]1C[C@H]2[C@@H]3CCC4=CC(=O)C=C[C@]4(C)[C@@]3(Cl)[C@@H](O)C[C@]2(C)[C@@]1(O)C(=O)CO [BECLOMETHASONE] | Not Active | Not Active | Not Active | Not Active | Not Active | Not Active | Not Active | – | – | – | – | – | – | – | –
Cc1cc(=O)n(-c2ccccc2)n1C [ANTIPYRINE] | Not Active | Not Active | Not Active | Not Active | Not Active | Not Active | Not Active | – | – | – | – | – | – | – | –
COc1cccc2c1C(=O)c1c(O)c3c(c(O)c1C2=O)C[C@@](O)(C(=O)CO)C[C@@H]3O[C@H]1C[C@H](N)[C@@H](O)[C@H](C)O1 [EPIRUBICIN] | Not Active | Not Active | Not Active | Not Active | Not Active | – | Not Active | – | – | – | – | – | – | – | 5.18 µM
C[C@](O)(CS(=O)(=O)c1ccc(F)cc1)C(=O)Nc1ccc(C#N)c(C(F)(F)F)c1 [(R)-BICALUTAMIDE] | Not Active | Not Active | Not Active | Not Active | Not Active | Not Active | Not Active | – | – | – | – | – | – | – | –
